The record followed here is US11787785B2 (NOVARTIS AG, priority 2021, dated 2023).

The experiment has as its target T1, WIZ protein (HiBit-WIZ fusion protein) (Homo sapiens, UniProt O95785+Q96SW2).
T1 construct: expressed in transfected cells
The experiment in a line: Quantification of WIZ protein levels in HiBit tag fusion protein assay (WIZ HiBit assay in 293T cells). Type of experiment: cell-based. Further details: remaining activity / Dmax: dose or concentration left out as unconfirmed. To be noted: for Dmax at 25 µM: 100 − Amax; for Dmax at 25 µM / remaining activity at 25 µM: 293T cells; for remaining activity at 25 µM: DMSO-normalized, curve-fitted percentage of WIZ-HiBit remaining at 25 uM; for DC50: WIZ HiBit assay in 293T cells, 10-point, 5-fold dose response, highest concentration 25 μM, about 18 hours, read-out: WIZ AC50. On the procedure: The HiBit system from Promega was used to develop high-throughput and quantitative assays to measure changes in WIZ protein levels in response to compounds. The HiBit tag was derived from a split Nanoluciferase and has the following protein sequence: […] (SEQ ID NO: 1). The complementary fragment of Nanoluciferase (known as LgBit, from Promega), was added to the HiBit tag to form an active Nanoluciferase enzyme whose activity can be precisely measured. In this way, the levels of a fusion protein with the HiBit tag can be quantified in cell lysates.
Lentiviral vectors, based on the Invitrogen™ pLenti6.2/V5 DEST backbone were constructed that places the HiBit tag upstream of WIZ and expressed the fusion protein from an HSVTK promotor.
To ensure moderate and consistent expression of the HiBit-WIZ fusion protein across all cells in the population, stable cell lines were constructed from cells harboring a single copy of the construct. Lentivirus packaged with the constructs were made using the ViraPower™ kit from Invitrogen™. 293T cells from ATCC (Catalog number: CRL-3216), were infected with the virus at low multiplicity of infection and selected by 5 μg/mL blasticidin in culture media for 2 weeks.
The levels of HiBit-WIZ tagged fusion proteins in compound-treated cell lines were measured as follows:
On day 1, cells were diluted to 1.0×10^6 cells/ml in normal growth medium. 20 μL of cell suspension were plated in each well of a solid white 384-well plate. Plates were incubated overnight in a 37° C. and 5% CO2 humidified tissue culture incubator.
On day 2, serial dilutions of compounds were made in 384-well plates. Compound plates were set up with DMSO in columns 1, 2, 23, 24, and 10-point compound dilution series in column 3-12 and column 13-22. 10 mM stock solution of compound were placed into column 3 or 13 and a 1:5 serial dilution was carried out until there was a 10-point dilution series per compound. 50 nL of diluted compounds were transferred into the plated cells by Echo® (Labcyte) acoustic transfer. The highest concentration of compound was 25 μM. Plates were incubated overnight (about 18 hours) in a 37° C. and 5% CO2 humidified tissue culture incubator.
On day 3, plates were removed from the incubator and allowed to equilibrate at room temperature for 60 minutes. HiBit substrate (Nano-Glo® HiBit Lytic Detection System, Promega Catalogue number: N3050) was added as described by the manufacturers protocols. Plates were incubated at room temperature for 30 minutes and luminescence was read using an EnVision® reader (PerkinElmer®). Data was analyzed and visualized using the Spotfire® software package.
WIZ Degradation Activity of Compounds (Table 1)
WIZ Amax reflects the DMSO-normalized, curve-fitted percentage of WIZ-HiBit remaining at 25 uM. It was calculated by normalizing […] controls to 100%, parametric curve fitting of the dose response data (10-point, 5-fold), followed by calculation of response at 25 uM using the fitted equation (nd=not determined).
On the technique in general: HiBiT is a short tag that completes a luciferase, so light tracks the accessible tagged protein.

Setting [1] is: HEK-293T, read-out: % degradation of WIZ (100 − Amax).

T1 sequence (O95785 whole entry, the tested form may be a part): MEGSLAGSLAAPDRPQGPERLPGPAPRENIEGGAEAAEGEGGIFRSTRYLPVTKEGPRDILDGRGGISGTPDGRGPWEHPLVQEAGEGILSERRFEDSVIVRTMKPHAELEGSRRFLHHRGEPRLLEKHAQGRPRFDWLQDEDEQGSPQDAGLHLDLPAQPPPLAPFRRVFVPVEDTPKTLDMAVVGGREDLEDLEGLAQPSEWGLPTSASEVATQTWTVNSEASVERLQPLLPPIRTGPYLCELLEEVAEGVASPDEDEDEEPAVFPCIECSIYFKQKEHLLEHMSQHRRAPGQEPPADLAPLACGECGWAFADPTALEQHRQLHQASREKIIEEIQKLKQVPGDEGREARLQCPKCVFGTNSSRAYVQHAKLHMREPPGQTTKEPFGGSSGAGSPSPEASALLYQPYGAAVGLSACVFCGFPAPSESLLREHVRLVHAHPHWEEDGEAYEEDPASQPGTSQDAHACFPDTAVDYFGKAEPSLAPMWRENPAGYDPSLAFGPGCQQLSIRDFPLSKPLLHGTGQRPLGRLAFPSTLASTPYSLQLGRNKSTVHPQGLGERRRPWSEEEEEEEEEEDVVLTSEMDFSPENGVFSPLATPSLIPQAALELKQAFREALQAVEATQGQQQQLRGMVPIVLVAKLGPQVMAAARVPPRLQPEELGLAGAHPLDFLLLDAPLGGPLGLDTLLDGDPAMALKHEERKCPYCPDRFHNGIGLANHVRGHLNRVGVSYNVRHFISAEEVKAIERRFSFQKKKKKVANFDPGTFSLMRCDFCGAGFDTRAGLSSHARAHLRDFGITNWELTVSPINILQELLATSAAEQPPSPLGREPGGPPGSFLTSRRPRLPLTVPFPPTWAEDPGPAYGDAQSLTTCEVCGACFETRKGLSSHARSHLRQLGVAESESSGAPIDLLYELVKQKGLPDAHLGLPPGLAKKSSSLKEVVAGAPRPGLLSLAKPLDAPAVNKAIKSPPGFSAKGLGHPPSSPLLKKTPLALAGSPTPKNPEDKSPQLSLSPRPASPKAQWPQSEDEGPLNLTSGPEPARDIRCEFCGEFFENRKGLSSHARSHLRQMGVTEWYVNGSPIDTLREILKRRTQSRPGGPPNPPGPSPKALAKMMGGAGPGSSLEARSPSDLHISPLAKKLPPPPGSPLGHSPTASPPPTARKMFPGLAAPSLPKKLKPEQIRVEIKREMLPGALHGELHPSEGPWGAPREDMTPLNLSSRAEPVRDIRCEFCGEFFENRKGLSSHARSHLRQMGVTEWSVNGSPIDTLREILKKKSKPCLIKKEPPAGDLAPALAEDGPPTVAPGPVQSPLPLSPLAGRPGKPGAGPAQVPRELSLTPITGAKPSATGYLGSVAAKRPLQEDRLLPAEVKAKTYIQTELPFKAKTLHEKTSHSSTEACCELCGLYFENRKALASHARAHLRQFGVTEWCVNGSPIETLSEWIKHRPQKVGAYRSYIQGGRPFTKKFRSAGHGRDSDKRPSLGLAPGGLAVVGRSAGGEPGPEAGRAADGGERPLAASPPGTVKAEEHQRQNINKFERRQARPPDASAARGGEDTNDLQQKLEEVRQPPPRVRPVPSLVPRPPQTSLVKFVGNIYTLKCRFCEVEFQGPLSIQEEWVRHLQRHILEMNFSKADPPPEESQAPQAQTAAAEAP
T1 sequence (Q96SW2 whole entry, the tested form may be a part): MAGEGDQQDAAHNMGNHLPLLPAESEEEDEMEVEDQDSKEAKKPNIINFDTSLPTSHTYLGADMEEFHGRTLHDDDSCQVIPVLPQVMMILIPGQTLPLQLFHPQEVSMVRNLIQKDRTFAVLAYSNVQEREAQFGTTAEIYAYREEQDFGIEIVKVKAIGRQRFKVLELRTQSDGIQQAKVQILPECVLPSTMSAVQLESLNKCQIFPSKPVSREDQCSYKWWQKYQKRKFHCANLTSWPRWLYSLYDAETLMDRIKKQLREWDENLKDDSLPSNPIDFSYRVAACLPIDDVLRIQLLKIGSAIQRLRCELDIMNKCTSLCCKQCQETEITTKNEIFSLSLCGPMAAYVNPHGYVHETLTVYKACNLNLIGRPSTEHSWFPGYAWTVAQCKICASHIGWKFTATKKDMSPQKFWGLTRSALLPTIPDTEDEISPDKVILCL
T1 sequence (Q16531 whole entry partner, the tested form may be a part): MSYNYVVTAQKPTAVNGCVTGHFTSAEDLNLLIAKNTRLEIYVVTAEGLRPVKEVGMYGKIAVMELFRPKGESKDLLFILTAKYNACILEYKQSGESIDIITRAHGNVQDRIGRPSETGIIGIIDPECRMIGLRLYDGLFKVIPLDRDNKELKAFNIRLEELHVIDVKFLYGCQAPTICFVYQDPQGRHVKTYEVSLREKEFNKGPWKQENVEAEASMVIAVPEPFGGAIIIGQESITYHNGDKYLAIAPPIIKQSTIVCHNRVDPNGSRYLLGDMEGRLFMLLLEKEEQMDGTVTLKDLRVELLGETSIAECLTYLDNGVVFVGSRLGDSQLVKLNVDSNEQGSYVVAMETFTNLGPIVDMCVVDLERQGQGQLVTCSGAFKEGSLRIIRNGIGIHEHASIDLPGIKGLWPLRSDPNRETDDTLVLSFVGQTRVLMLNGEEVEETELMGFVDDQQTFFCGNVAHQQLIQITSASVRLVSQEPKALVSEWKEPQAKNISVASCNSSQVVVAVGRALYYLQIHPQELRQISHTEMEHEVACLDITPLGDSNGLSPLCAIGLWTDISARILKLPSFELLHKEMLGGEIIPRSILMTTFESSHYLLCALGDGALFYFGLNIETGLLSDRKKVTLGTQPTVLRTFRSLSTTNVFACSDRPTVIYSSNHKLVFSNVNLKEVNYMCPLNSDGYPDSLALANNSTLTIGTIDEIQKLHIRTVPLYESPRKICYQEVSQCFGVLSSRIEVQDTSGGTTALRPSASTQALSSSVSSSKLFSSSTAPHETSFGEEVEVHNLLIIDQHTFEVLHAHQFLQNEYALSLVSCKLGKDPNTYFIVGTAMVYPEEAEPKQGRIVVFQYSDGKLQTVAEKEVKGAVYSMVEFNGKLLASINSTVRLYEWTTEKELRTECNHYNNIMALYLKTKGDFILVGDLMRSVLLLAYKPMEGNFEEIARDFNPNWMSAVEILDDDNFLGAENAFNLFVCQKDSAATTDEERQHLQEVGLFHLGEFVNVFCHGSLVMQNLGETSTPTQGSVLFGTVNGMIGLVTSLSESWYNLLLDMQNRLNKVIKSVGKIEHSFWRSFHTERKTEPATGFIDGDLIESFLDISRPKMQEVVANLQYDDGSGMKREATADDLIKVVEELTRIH

For `C[C@H]1CN(Cc2ccn3ncc(N4CCC(=O)NC4=O)c3c2)CCN1C(=O)C1CCCC1` [Example 343, (S)-1-(5-((4-(cyclopentanecarbonyl)-3-methylpiperazin-1-yl)methyl)pyrazolo[1,5-a]pyridin-3-yl)dihydropyrimidine-2,4(1H,3H)-dione], the DC50 worked out at 495 nM. Besides, under setting [1], the Dmax at 25 µM turned out to be 46%. Further, the remaining activity at 25 µM (HEK-293T, read-out: WIZ Amax) turned out to be 54%.
For `O=C1CCN(c2cnn3ccc(CC4CCN(Cc5ccc(C(F)(F)F)nc5)CC4)cc23)C(=O)N1` [Example 54, 1-(5-((1-((6-(trifluoromethyl)pyridin-3-yl)methyl)piperidin-4-yl)methyl)pyrazolo[1,5-a]pyridin-3-yl)dihydropyrimidine-2,4(1H,3H)-dione] the same measures were 44 nM, 64% and 36%.
For `CC(C)CN1CCN(Cc2ccn3ncc(N4CCC(=O)NC4=O)c3c2)[C@@H](C)C1` [Example 222] the same measures were 457 nM, 64% and 36%.
Take `O=C1CCN(c2cnn3ccc(CN4CCN5CCC[C@@H]5C4)cc23)C(=O)N1` [Example 261, (R)-1-(5-((hexahydropyrrolo[1,2-a]pyrazin-2(1H)-yl)methyl)pyrazolo[1,5-a]pyridin-3-yl)dihydropyrimidine-2,4(1H,3H)-dione]: the DC50 is 417 nM. Also, under setting [1], the Dmax at 25 µM was found to be 63%. Moreover, where the note is “HEK-293T, read-out: WIZ Amax”, the remaining activity at 25 µM turned out to be 37%.
For `CC(C)CN1[C@H](C)CN(Cc2ccn3ncc(N4CCC(=O)NC4=O)c3c2)C[C@@H]1C` [Example 257, 1-(5-(((3S,5R)-4-isobutyl-3,5-dimethylpiperazin-1-yl)methyl)pyrazolo[1,5-a]pyridin-3-yl)dihydropyrimidine-2,4(1H,3H)-dione] the same measures were 101 nM, 74% and 26%.
For `CC(C)CN1CC(Cc2ccn3ncc(N4CCC(=O)NC4=O)c3c2)C1` [Example 134, 1-(5-((1-isobutylazetidin-3-yl)methyl)pyrazolo[1,5-a]pyridin-3-yl)dihydropyrimidine-2,4(1H,3H)-dione], in that order: 4300 nM, 27% and 73%.
For `C[C@H]1C[C@@H](Cc2ccn3ncc(N4CCC(=O)NC4=O)c3c2)CCN1CC1CCC(F)(F)CC1` [Example 74], in that order: 3 nM, 90% and 10%.
In the case of `C[C@H]1C[C@H](Cc2ccn3ncc(N4CCC(=O)NC4=O)c3c2)CCN1C[C@@H]1CCC(F)(F)C1` [Example 306, 1-(5-(((2S,4R)-1-(((R)-3,3-difluorocyclopentyl)methyl)-2-methylpiperidin-4-yl)methyl)pyrazolo[1,5-a]pyridin-3-yl)dihydropyrimidine-2,4(1H,3H)-dione], the DC50 stood at 8 nM. Also, the Dmax at 25 µM under setting [1] was determined as 84%. Moreover, the remaining activity at 25 µM (HEK-293T, read-out: WIZ Amax) stood at 16%.
For `CC(C)C(C)N1CCC(Cc2ccn3ncc(N4CCC(=O)NC4=O)c3c2)CC1` (stereo not drawn) [Example 70, 1-(5-((1-(3-methylbutan-2-yl)piperidin-4-yl)methyl)pyrazolo[1,5-a]pyridin-3-yl)dihydropyrimidine-2,4(1H,3H)-dione], in that order: 21 nM, 83% and 17%.
For `CC(C)CN1CCN(Cc2ccn3ncc(N4CCC(=O)NC4=O)c3c2)CC1(C)C` [Example 233, 1-(5-((4-isobutyl-3,3-dimethylpiperazin-1-yl)methyl)pyrazolo[1,5-a]pyridin-3-yl)dihydropyrimidine-2,4(1H,3H)-dione] the same measures were 589 nM, 40% and 60%.
Regarding `CO[C@H]1C[C@H](CN2CC[C@@H](Cc3ccn4ncc(N5CCC(=O)NC5=O)c4c3)C[C@@H]2C)C1` [Example 302, 1-(5-(((2S,4R)-1-(((1r,3S)-3-methoxycyclobutyl)methyl)-2-methylpiperidin-4-yl)methyl)pyrazolo[1,5-a]pyridin-3-yl)dihydropyrimidine-2,4(1H,3H)-dione], the DC50 is 42 nM. For the same molecule, the Dmax at 25 µM under setting [1] was 84%. Moreover, the remaining activity at 25 µM (HEK-293T, read-out: WIZ Amax) is 16%.
For `O=C1CCN(c2cnn3ccc(CN4CCN(Cc5cscn5)CC4)cc23)C(=O)N1` [Example 197, 1-(5-((4-(thiazol-4-ylmethyl)piperazin-1-yl)methyl)pyrazolo[1,5-a]pyridin-3-yl)dihydropyrimidine-2,4(1H,3H)-dione] the same measures were 1140 nM, 40% and 60%.
For `C[C@@H]1C[C@H](Cc2ccn3ncc(N4CCC(=O)NC4=O)c3c2)CCN1CC1CCCCC1` [Example 76], the DC50 came out at 36 nM. Under setting [1], the Dmax at 25 µM is 81%. Besides, where the note is “HEK-293T, read-out: WIZ Amax”, the remaining activity at 25 µM was determined as 19%.
For `O=C1CCN(c2cnn3ccc(CN4CCN5CCOC[C@H]5C4)cc23)C(=O)N1` [Example 263, (R)-1-(5-((hexahydropyrazino[2,1-c][1,4]oxazin-8(1H)-yl)methyl)pyrazolo[1,5-a]pyridin-3-yl)dihydropyrimidine-2,4(1H,3H)-dione] the same measures were 880 nM, 55% and 45%.
For the molecule `C[C@H]1C[C@H](Cc2ccn3ncc(N4CCC(=O)NC4=O)c3c2)CCN1CCC(F)(F)F` [Example 276, 1-(5-(((2S,4R)-2-methyl-1-(3,3,3-trifluoropropyl)piperidin-4-yl)methyl)pyrazolo[1,5-a]pyridin-3-yl)dihydropyrimidine-2,4(1H,3H)-dione], the DC50 amounted to 9 nM. Under setting [1], the Dmax at 25 µM stood at 84%. Besides, the remaining activity at 25 µM (HEK-293T, read-out: WIZ Amax) amounted to 15%.
In the case of `C[C@H]1C[C@H](Cc2ccn3ncc(N4CCC(=O)NC4=O)c3c2)CCN1CC1CCC(C)(C)CC1` [Example 149], the DC50 came out at 0.4 nM. Also, the Dmax at 25 µM under setting [1] was 90%. Besides, under “HEK-293T, read-out: WIZ Amax”, the remaining activity at 25 µM came to 10%.
For `C[C@H]1CN(Cc2ccn3ncc(N4CCC(=O)NC4=O)c3c2)CCN1C1CCOCC1` [Example 330], in that order: 41 nM, 82% and 18%.
For `Cn1cnc(CN2CCN(Cc3ccn4ncc(N5CCC(=O)NC5=O)c4c3)CC2)c1` [Example 196, 1-(5-((4-((1-methyl-1H-imidazol-4-yl)methyl)piperazin-1-yl)methyl)pyrazolo[1,5-a]pyridin-3-yl)dihydropyrimidine-2,4(1H,3H)-dione], in that order: 3820 nM, 41% and 59%.
`C[C@H]1C[C@H](Cc2ccn3ncc(N4CCC(=O)NC4=O)c3c2)CCN1CC(F)(F)C(F)F` [Example 273, 1-(5-(((2S,4R)-2-methyl-1-(2,2,3,3-tetrafluoropropyl)piperidin-4-yl)methyl)pyrazolo[1,5-a]pyridin-3-yl)dihydropyrimidine-2,4(1H,3H)-dione]: the DC50 was 40 nM. Besides, the Dmax under setting [1] was found to be 78%. Further, the remaining activity (HEK-293T, read-out: WIZ Amax) came to 22%.
Regarding `O=C1CCN(c2cnn3ccc(CN4CCN(Cc5cccnc5)CC4)cc23)C(=O)N1` [Example 191, 1-(5-((4-(pyridin-3-ylmethyl)piperazin-1-yl)methyl)pyrazolo[1,5-a]pyridin-3-yl)dihydropyrimidine-2,4(1H,3H)-dione], the DC50 came to 683 nM. Also, the Dmax at 25 µM under setting [1] was found to be 50%. Besides, the remaining activity at 25 µM (HEK-293T, read-out: WIZ Amax) was 50%.
For the molecule `CC(c1cccc(F)c1)N1CCC(Cc2ccn3ncc(N4CCC(=O)NC4=O)c3c2)CC1` (stereo not drawn) [Example 48, 1-(5-((1-(1-(3-fluorophenyl)ethyl)piperidin-4-yl)methyl)pyrazolo[1,5-a]pyridin-3-yl)dihydropyrimidine-2,4(1H,3H)-dione], the DC50 was determined as 61 nM. In addition, the Dmax at 25 µM under setting [1] was found to be 68%. Also, for the setting “HEK-293T, read-out: WIZ Amax”, the remaining activity at 25 µM was found to be 32%.
